Counter-ions that a name gives are not always drawn.
tested on: Acinetobacter baumannii ATCC17961; experiment: Antimicrobial susceptibility testing: 90% growth inhibitory concentration (IC90) determination in Iso-Sensitest broth, OD600 growth; type: cell-based; details: Acinetobacter baumannii, ATCC17961, 16 h, read-out: A. baumannii ATCC 17961 IC90 (uM), strain ATCC 17961, OD600 growth over 16 h
Method in brief: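 Growth inhibition is calculated during the logarithmic phase from OD600 readings taken every 20 minutes across 16 h at 35±2° C. Bacteria at ~5×10^(5) CFU/ml face twofold dilution series (e.g. 50 to 0.097 μM final).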

Structure (SMILES) | IC90
N#CCn1cc(-c2cnc3c(Nc4ccc(C(=O)NCC(=O)N5CC[C@@H](N)C5)c(Cl)c4)nccn23)c(C(F)(F)F)n1 [Example 663, N-[2-[(3R)-3-aminopyrrolidin-1-yl]-2-oxo-ethyl]-2-chloro-4-[[3-[1-(cyanomethyl)-3-(trifluoromethyl)pyrazol-4-yl]imidazo[1,2-a]pyrazin-8-yl]amino]benzamide formate] | 0.285 µM
C[C@@H](NC(=O)c1ccc(Nc2nccn3c(-c4cn(CC#N)nc4C(F)(F)F)cnc23)cc1Cl)C(=O)N1CC[C@H](N)C1 [Example 665, N-[(1R)-2-[(3S)-3-aminopyrrolidin-1-yl]-1-methyl-2-oxo-ethyl]-2-chloro-4-[[3-[1-(cyanomethyl)-3-(trifluoromethyl)pyrazol-4-yl]imidazo[1,2-a]pyrazin-8-yl]amino]benzamide formate] | 0.29 µM
CCc1cc(Nc2nccn3c(-c4cn(CC(F)F)nc4C(F)(F)F)cnc23)ccc1C(=O)NCC(=O)N1CCC(N)CC1 [Example 666, N-[2-(4-amino-1-piperidyl)-2-oxo-ethyl]-4-[[3-[1-(2,2-difluoroethyl)-3-(trifluoromethyl)pyrazol-4-yl]imidazo[1,2-a]pyrazin-8-yl]amino]-2-ethyl-benzamide formate] | 0.291 µM
CCc1cc(Nc2nccn3c(-c4cn(CC(F)F)nc4C(F)(F)F)cnc23)ccc1C(=O)NCC(=O)NCCN(C)C [Example 668, 4-[[3-[1-(2,2-difluoroethyl)-3-(trifluoromethyl)pyrazol-4-yl]imidazo[1,2-a]pyrazin-8-yl]amino]-N-[2-[2-(dimethylamino)ethylamino]-2-oxo-ethyl]-2-ethyl-benzamide formate] | 0.294 µM
CCc1cc(Nc2nccn3c(-c4cn(C5CC(F)(F)C5)nc4C(F)(F)F)cnc23)ccc1C(=O)NCCOCCCN [Example 670, N-(2-(3-aminopropoxy)ethyl)-4-((3-(1-(3,3-difluorocyclobutyl)-3-(trifluoromethyl)-1H-pyrazol-4-yl)imidazo[1,2-a]pyrazin-8-yl)amino)-2-ethylbenzamide formate] | 0.304 µM
CCc1cc(Nc2nccn3c(-c4cn(C5CCC5)nc4C(F)(F)F)cnc23)ccc1C(=O)NCC1CC1N (stereo not drawn) [Example 671, N-((2-aminocyclopropyl)methyl)-4-((3-(1-cyclobutyl-3-(trifluoromethyl)-1H-pyrazol-4-yl)imidazo[1,2-a]pyrazin-8-yl)amino)-2-ethylbenzamide formate] | 0.309 µM

same assay, conditions: Acinetobacter baumannii, ATCC17961, 16 h, strain ATCC 17961, OD600 growth over 16 h, read-out: A. baumannii ATCC 17961 IC90

Structure (SMILES) | IC90
Cc1cc(Nc2nccn3c(-c4cn(CC(F)F)nc4C(F)(F)F)cnc23)cc(F)c1C(=O)N[C@H](C)CNC(=O)[C@H]1[C@@H]2CNC[C@@H]21 [Example 653, (1R,5S,6r)-N-((R)-2-(4-((3-(1-(2,2-difluoroethyl)-3-(trifluoromethyl)-1H-pyrazol-4-yl)imidazo [1,2-a]pyrazin-8-yl)amino)-2-fluoro-6-methylbenzamido)propyl)-3-azabicyclo[3.1.0]hexane-6-carboxamide] | 0.259 µM
CCc1cc(Nc2nccn3c(-c4cn(CC#N)nc4C(F)(F)F)cnc23)ccc1C(=O)N[C@H](C)CNC(=O)[C@@H]1CCCN1 [Example 654, (S)-N-((R)-2-(4-((3-(1-(cyanomethyl)-3-(trifluoromethyl)-1H-pyrazol-4-yl)imidazo[1,2-a]pyrazin-8-yl)amino)-2-ethylbenzamido)propyl) pyrrolidine-2-carboxamide] | 0.263 µM
CCc1cc(Nc2nccn3c(-c4cn(CCC(C)(C)Cl)nc4C(F)(F)F)cnc23)ccc1C(=O)NCCOCCN [Example 655, N-(2-(2-aminoethoxy)ethyl)-4-((3-(1-(3-chloro-3-methylbutyl)-3-(trifluoromethyl)-1H-pyrazol-4-yl)imidazo[1,2-a]pyrazin-8-yl)amino)-2-ethylbenzamide] | 0.266 µM
N#CCn1cc(-c2cnc3c(Nc4ccc(C(=O)NCC(=O)N5CC[C@H](N)C5)c(Cl)c4)nccn23)c(C(F)(F)F)n1 [Example 656, N-[2-[(3S)-3-aminopyrrolidin-1-yl]-2-oxo-ethyl]-2-chloro-4-[[3-[1-(cyanomethyl)-3-(trifluoromethyl)pyrazol-4-yl]imidazo[1,2-a]pyrazin-8-yl]amino] benzamide formate] | 0.266 µM
NCC(=O)N1CC2(C1)CN(C(=O)c1ccc(Nc3nccn4c(-c5c[nH]nc5C(F)(F)F)cnc34)cc1Cl)C2 [Example 658, 2-amino-1-(6-(2-chloro-4-((3-(3-(trifluoromethyl)-1H-pyrazol-4-yl)imidazo[1,2-a]pyrazin-8-yl)amino)benzoyl)-2,6-diazaspiro[3.3]heptan-2-yl)ethan-1-one] | 0.269 µM

Continued, values first:

IC90 | Structure (SMILES)
0.27 µM | N#CCn1cc(-c2cnc3c(Nc4ccc(C(=O)N5CC6(CN(C(=O)CN)C6)C5)c(Cl)c4)nccn23)c(C(F)(F)F)n1 [Example 659, 2-(4-(8-((3-chloro-4-(6-glycyl-2,6-diazaspiro[3.3]heptane-2-carbonyl)phenyl)amino)imidazo[1,2-a]pyrazin-3-yl)-3-(trifluoromethyl)-1H-pyrazol-1-yl)acetonitrile]
0.277 µM | N#CCn1cc(-c2cnc3c(Nc4ccc(C(=O)NCC(=O)NC5CC(N)C5)c(Cl)c4)nccn23)c(C(F)(F)F)n1 (stereo not drawn) [Example 660, N-[2-[(3-aminocyclobutyl)amino]-2-oxo-ethyl]-2-chloro-4-[[3-[1-(cyanomethyl)-3-(trifluoromethyl)pyrazol-4-yl]imidazo[1,2-a]pyrazin-8-yl]amino] benzamide formate]
0.279 µM | CCc1cc(Nc2nccn3c(-c4cn(C5CCC5)nc4C(F)(F)F)cnc23)ccc1C(=O)NCCOCCN1CCOCC1 [Example 661, 4-((3-(1-cyclobutyl-3-(trifluoromethyl)-1H-pyrazol-4-yl)imidazo[1,2-a]pyrazin-8-yl)amino)-2-ethyl-N-(2-(2-morpholinoethoxy)ethyl) benzamide formate]
0.284 µM | C#CCn1cc(-c2cnc3c(Nc4cc(C)c(C(=O)N[C@H](C)CN)c(F)c4)nccn23)c(C(F)(F)F)n1 [Example 662, (R)-N-(1-aminopropan-2-yl)-2-fluoro-6-methyl-4-((3-(1-(prop-2-yn-1-yl)-3-(trifluoromethyl)-1H-pyrazol-4-yl)imidazo [1,2-a]pyrazin-8-yl)amino)benzamide]
0.286 µM | Cc1cc(Nc2nccn3c(-c4cn(CC(F)F)nc4C(F)(F)F)cnc23)cc(F)c1C(=O)N1CCN(C(=O)[C@H](C)N)CC1 [Example 664, (S)-2-amino-1-(4-(4-((3-(1-(2,2-difluoroethyl)-3-(trifluoromethyl)-1H-pyrazol-4-yl)imidazo [1,2-a]pyrazin-8-yl)amino)-2-fluoro-6-methylbenzoyl)piperazin-1-yl)propan-1-one]
0.294 µM | CCc1cc(Nc2nccn3c(-c4cn(CC(F)F)nc4C(F)(F)F)cnc23)ccc1C(=O)NCCNC(=O)[C@@H]1C[C@@H](O)CN1 [Example 667, (2S,4R)-N-(2-(4-((3-(1-(2,2-difluoroethyl)-3-(trifluoromethyl)-1H-pyrazol-4-yl)imidazo[1,2-a]pyrazin-8-yl)amino)-2-ethylbenzamido)ethyl)-4-hydroxypyrrolidine-2-carboxamide]
0.3 µM | Cc1cc(Nc2nccn3c(-c4cn(CC(F)F)nc4C(F)(F)F)cnc23)cc(F)c1C(=O)N[C@H](C)CNC(=O)[C@H]1C[C@@H](N)C1 [Example 669, N-((R)-1-((1s,3S)-3-aminocyclobutane-1-carboxamido)propan-2-yl)-4-((3-(1-(2,2-difluoroethyl)-3-(trifluoromethyl)-1H-pyrazol-4-yl)imidazo[1,2-a]pyrazin-8-yl)amino)-2-fluoro-6-methylbenzamide]

Reference: patent publication US20230203043A1, “NOVEL IMIDAZOPYRAZINE DERIVATIVES” (Hoffmann-La Roche Inc., priority 2020, published 2023)
